The source of these data is PMC4894664 (Cancer cell, 2015).

Data set [1] has as its target p61 BRAF V600E (Homo sapiens, UniProt P15056, DEL169-380/V600E). The data set is described as follows: ERK signaling. It counts as cell-based. The settings on record: SKBR3, drug 1 hr.
For data set [2], the target named is BRAF/CRAF heterodimers (Homo sapiens, UniProt P04049+P15056). The experiment in a line: Induction of BRAF/CRAF heterodimers. It counts as cell-based. The settings on record: HeLa and two melanoma cell lines with mutant NRAS, 1 hr.
The subject of data set [3] is SKBR3 breast cancer (HER2-activated wild type RAS). The experiment in a line: RAS activity and p-ERK in SKBR3 cells. It counts as cell-based.
In data set [4] the test system is SK-MEL-239 parental cells (BRAF V600E). The data set is described as follows: p-ERK inhibition in SK-MEL-239 parental cells. Format: cell-based. The settings on record: read-out: concentration inhibiting monomer driven signaling (p-ERK IC50).
In data set [5] the test system is BRAF V600E tumor cells. The data set is described as follows: ERK phosphorylation after drug washout in BRAF V600E tumor cells. Format: cell-based. The note with it: 1 hr exposure then washout.
Data set [6] relates to SK-MEL-239 C4 clone (which expresses p61 BRAF V600E). The data set is described as follows: p-ERK inhibition in SK-MEL-239 C4 clone. It counts as cell-based. The settings on record: read-out: concentration inhibiting dimer signaling (p-ERK IC50).
Data set [7] deals with SK-MEL-30 (NRAS Q61K) cells. The experiment in a line: p-ERK in SK-MEL-30 cells, with and without drug washout. Format: cell-based.
The subject of data set [8] is A375 (BRAF V600E) cells. The data set is described as follows: p-ERK in A375 cells. Format: cell-based.
Data set [9] relates to JVM-3, a BRAF K601N CLL cell line. The experiment in a line: ERK signaling and proliferation of JVM-3. Format: cell-based.
Data set [10] relates to SK-MEL-239 tumors. The experiment in a line: SK-MEL-239 subcutaneous xenograft. Format: in vivo, nude mice. The settings on record: for growth of SK-MEL-239 tumors: daily for 32 days, 75 mg/kg vemurafenib or 100 mg/kg BGB659; for ERK signaling in SK-MEL-239 tumors: tumor extracts, Western blot, 75 mg/kg vemurafenib or 100 mg/kg BGB659 daily.
Data set [11] relates to BRAF V600E T529N or p61 BRAF V600E T529N. The data set is described as follows: ERK signaling in cells expressing BRAF gatekeeper mutants. It counts as cell-based. The settings on record: cells expressing BRAF V600E T529N or p61 BRAF V600E T529N (gatekeeper mutation).
In data set [12] the test system is RAF mutants that constitutively dimerize. The experiment in a line: ERK signaling in SKBR3 cells expressing RAF mutants that constitutively dimerize. It counts as cell-based. The note with it: SKBR3, 1 μM drug, 1 hr.
In data set [13] the test system is SK-MEL-239 C4 tumors (p61 V600E). The experiment in a line: SK-MEL-239 C4 subcutaneous xenograft. Format: in vivo, nude mice. The note with it: for activity against SK-MEL-239 C4 tumors (growth): daily for 32 days, 75 mg/kg vemurafenib or 100 mg/kg BGB659.
Data set [14] in a line: Tolerability of daily dosing in mice. Format: in vivo. The settings on record: 100 mg/kg given daily.
Data set [15] deals with second site of the WT RAF dimer in SK-MEL-30 NRAS mutant cells. It counts as cell-based. The settings on record: p-ERK; first site occupied by LGX818.
Data set [16] relates to A549 lung cancer (mutant KRAS G12S). The data set is described as follows: p-ERK in A549 cells. The settings on record: 1 hr. It counts as cell-based.
The subject of data set [17] is SK-MEL-2 melanoma (mutant NRAS Q61R). The data set is described as follows: p-ERK in SK-MEL-2 cells. The settings on record: 1 hr. Format: cell-based.
Data set [18] concerns A375 in which NRAS Q61K is expressed. The experiment in a line: p-ERK in A375 cells expressing NRAS Q61K. The settings on record: A375 with mutant NRAS overexpressed, 1 hr. Format: cell-based.
Where [19] appears, read: SK-MEL-30 (mutant NRAS, WT RAF).
Where [20] appears, read: SK-MEL-30, 3 μM for 1 hr then washout.

Structures are written as SMILES.

Take `CC(C)(C)c1nc(-c2cccc(NS(=O)(=O)c3c(F)cccc3F)c2F)c(-c2ccnc(N)n2)s1` [dabrafenib]: in [1], the “fold higher concentrations required to inhibit ERK driven by p61 V600E dimers than by p61 V600E R509H monomers” value was “same relative difference”. Moreover, in data set [2], the “induction of BRAF/CRAF heterodimers” value is “equivalent and much greater than that caused by vemurafenib”.

Consider `CS(=O)(=O)CCNCc1ccc(-c2ccc3ncnc(Nc4ccc(OCc5cccc(F)c5)c(Cl)c4)c3c2)o1` [lapatinib], for which the “RAS activity and ERK signaling” value in data set [3] (SKBR3, 1 hr exposure) is given as “potently suppressed”.

Turning to `COC(=O)N[C@@H](C)CNc1nccc(-c2cn(C(C)C)nc2-c2cc(Cl)cc(NS(C)(=O)=O)c2F)n1` [LGX818], the IC50 in [4] was found to be 14 nM. For the same compound, the “ERK phosphorylation 1 hr after washout of the drug” value in data set [5] is reported as “remains inhibited”. Besides, the IC50 in [6] is 287 nM. For the same compound, in data set [7] (setting [19]), the “concentration of peak induction of ERK” value was 100 nM and the “concentrations causing concentration-dependent inhibition of ERK signaling” value was in the range of 300 to 3000 nM. Moreover, in [7] (setting [20]), the “half-time of p-ERK rise after drug washout” value is 10 min and the “p-ERK 24 hr after washout relative to basal” value was “three fold elevated compared to basal”. Also, the “maximum p-ERK after drug washout relative to basal” value in data set [7] (SK-MEL-30, 3 μM for 1 hr then washout, maximum approximately 1 hr after washout) was “about five times higher than basal”. Moreover, the “p-ERK after drug washout” value in data set [8] (A375, 3 μM for 1 hr then washout) is on record as “remained inhibited in A375 for up to 24 hr”.

As to `CCCS(=O)(=O)Nc1ccc(F)c(C(=O)c2c[nH]c3ncc(-c4ccc(Cl)cc4)cc23)c1F` [vemurafenib], in data set [9], the “effect on ERK signaling and proliferation of JVM-3” value is given as “resistant”. Besides, in data set [10], the “growth of SK-MEL-239 tumors” value was “effectively inhibited” and the “ERK signaling in SK-MEL-239 tumors” value is listed as “potently inhibited”. Besides, the “ERK phosphorylation 1 hr after washout of the drug” value in data set [5] is “returned to pre-exposure levels”. Also, the “ERK signaling resistant to the drug” value in data set [11] was “resistant”. Besides, the “sensitivity of ERK signaling driven by RAF mutants that constitutively dimerize” value in [12] is on record as “resistant”. Moreover, in data set [7] (setting [19]), the “effect on ERK signaling” value is on record as “activates ERK signaling”. For the same compound, the “activity against SK-MEL-239 C4 tumors (growth)” value in data set [13] was “only the latter had activity”.

With `CC(C)(N)c1cc(C(=O)N[C@@H]2CCc3ccc(Oc4ccnc5c4CCC(=O)N5)cc3C2)cc(C(F)(F)F)c1` [BGB659], the “growth of SK-MEL-239 tumors” value in data set [10] is “effectively inhibited”. For the same compound, the “ERK signaling in SK-MEL-239 tumors” value in data set [10] is “potently inhibited”. Also, in data set [14], the “weight loss or other toxicity” value is on record as “unassociated with weight loss or other obvious toxicity”. Moreover, in data set [15], the “potency for inhibition of monomers and the second site of dimers” value is 100 to 300 nM. Besides, the “ERK signaling resistant to the drug” value in data set [11] was “resistant”. In addition, the “sensitivity of ERK signaling driven by RAF mutants that constitutively dimerize” value in data set [12] is “sensitive”. The “ERK phosphorylation at 1 μM” value in data set [16] (A549, 1 μM) was “declined to pretreatment levels”. Further, the “ERK phosphorylation at 10 μM” value in [16] (A549, 10 μM) is recorded as “some residual activity remained”; in [17] (SK-MEL-2, 10 μM), “approached complete inhibition”; in data set [3] (SKBR3, 10 μM, 1 hr), “approached complete inhibition”. Also, the “inhibition of ERK signaling at 1 μM” value in [8] (A375, 1 μM, 1 hr) was “almost complete inhibition”; in data set [18], “almost complete inhibition”. In addition, the IC50 in data set [8] (read-out: IC50 for inhibition of ERK signaling, A375, 1 hr) lay in the range of 100 to 300 nM. The “activity against SK-MEL-239 C4 tumors (growth)” value in data set [13] is “had activity”. Besides, the “ERK signaling in SK-MEL-239 C4 tumors” value in data set [13] (tumor extracts, Western blot, 75 mg/kg vemurafenib or 100 mg/kg BGB659 daily) is recorded as “only BGB659 inhibited”. The “decline of ERK phosphorylation” value in data set [17] (SK-MEL-2, 1 μM) is listed as 40%; in data set [3] (SKBR3, 1 μM, 1 hr), 40%.
